In US9290447B2, “(20R) and (20S)-24-(p-toluenesulfonyloxy)-25,26,27-trinorvitamin D3 analogs and their uses” (Wisconsin Alumni Research Foundation, priority 2011, dated 2016):

How the values were obtained:
HL-60 cells = experiment: HL-60 differentiation (nitro blue tetrazolium reduction); type: cell-based, human; conditions: FIG. 2
Procedure: The study drugs were dissolved in ethanol and the concentrations determined using UV spectrophotometry. Serial dilutions were prepared so that a range of drug concentrations could be tested without changing the final concentration of ethanol (≦0.2%) present in the cell cultures.
Human promyelocytic leukemia (HL60) cells were grown in RPMI-1640 medium containing 10% fetal bovine serum. The cells were incubated at 37° C. in the presence of 5% CO2.
HL60 cells were plated at 1.2×10^5 cells/ml. Eighteen hours after plating, cells in duplicate were treated with drug. Four days later, the cells were harvested and a nitro blue tetrazolium reduction assay was performed (Collins et al., 1979; J. Exp. Med. 149:969-974). The percentage of differentiated cells was determined by counting a total of 200 cells and recording the number that contained intracellular black-blue formazan deposits. Verification of differentiation to monocytic cells was determined by measuring phagocytic activity (data not shown).

[1] = tested on: OVCAR3 ovarian cancer cells; experiment: Cell viability, OVCAR3 ovarian cancer cells; type: cell-based; conditions: four days growth, methylene blue; FIG. 8
Procedure: (§1) Various cell lines were plated, administered a range of drug concentrations one time, allowed to grow for four days and then the number of cells present counted and expressed as a percentage of those present in the vehicle control plates. […] The number of live cells was expressed as a percentage of the total present. Each assay was done in duplicate.

HL-60 leukemia cells = experiment: Cell viability, HL-60 leukemia cells; type: cell-based, human; conditions: four days growth, methylene blue; FIG. 4A/4B
Procedure: as §1

[2] = tested on: 24-hydroxylase (24Ohase) gene promoter; experiment: In vitro transcription assay (24-hydroxylase promoter luciferase reporter in ROS 17/2.8 bone cells); type: cell-based; conditions: FIG. 3
Procedure: Cells were given a range of doses. Sixteen hours alter dosing the cells were harvested and luciferase activities were measured using a luminometer. RLU=relative luciferase units.

[3] = tested on: ROS 17/2.8 bone cancer cells; experiment: Cell viability, ROS 17/2.8 bone cancer cells; type: cell-based; conditions: four days growth, methylene blue; FIG. 7
Procedure: as §1

[4] = tested on: H-82 lung carcinoma cells; experiment: Cell viability, H-82 lung carcinoma cells; type: cell-based; conditions: four days growth, methylene blue; FIG. 5A/5B
Procedure: as §1

[5] = Change in body weight of dosed animals; type: in vivo, rat; conditions: various doses; FIG. 11
Procedure: (§2) Male, weanling Sprague-Dawley rats were placed on Diet 11 (Suda et al, J. Nutr. 100:1049, 1970) (0.47% Ca)+AEK oil for one week followed by Diet 11 (0.02% Ca)+AEK oil for 3 weeks. The rats were then switched to the same diet containing 0.47% Ca for one week followed by two weeks on the same diet containing 0.02% Ca. Dose administration began during the last week on 0.02% calcium diet. Four consecutive intraperitoneal (ip) doses were given approximately 24 hours apart. Twenty-four hours after the last dose, blood was collected from the severed neck and the concentration of serum calcium determined by atomic absorption spectrometry as a measure of bone calcium mobilization. The first 10 cm of the intestine was also collected for intestinal calcium transport analysis using the everted gut sac method.

vitamin D-deficient rats [6] = experiment: Intestinal calcium transport (everted gut sac method); type: in vivo, rat; conditions: 4 consecutive ip doses, FIG. 10
Procedure: as §2

vitamin D-deficient rats [7] = experiment: Bone calcium mobilization (serum calcium); type: in vivo, rat; conditions: rats on 0.02% Ca diet, FIG. 9
Procedure: as §2

[8] = tested on: DU-145 prostate cancer cells; experiment: Cell viability, DU-145 prostate cancer cells; type: cell-based; conditions: four days growth, methylene blue; FIG. 6
Procedure: as §1

[9] = molecular target: T1, full-length recombinant rat vitamin D receptor (Rattus norvegicus, UniProt P13053); experiment: Vitamin D receptor competitive binding with [3H]-1,25(OH)2D3; conditions: compared to 1α,25-dihydroxyvitamin D3; FIG. 1
T1 construct: Full-length recombinant rat receptor was expressed in E. coli; histidine tag (C); made in house; host or cells: E. coli BL21 (DE3) Codon Plus RIL
T1 sequence (P13053 1-423): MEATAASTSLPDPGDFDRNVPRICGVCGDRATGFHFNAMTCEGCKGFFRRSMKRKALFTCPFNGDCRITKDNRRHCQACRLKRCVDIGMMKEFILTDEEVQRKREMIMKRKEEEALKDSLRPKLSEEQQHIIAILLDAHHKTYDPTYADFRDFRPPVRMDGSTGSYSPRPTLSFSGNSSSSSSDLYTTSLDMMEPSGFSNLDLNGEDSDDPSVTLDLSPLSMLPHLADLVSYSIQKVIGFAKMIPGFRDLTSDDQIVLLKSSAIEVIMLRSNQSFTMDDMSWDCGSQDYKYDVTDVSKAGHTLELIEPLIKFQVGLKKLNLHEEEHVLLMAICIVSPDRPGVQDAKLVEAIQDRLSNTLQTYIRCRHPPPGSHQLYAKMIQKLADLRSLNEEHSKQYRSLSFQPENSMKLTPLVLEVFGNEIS
Procedure: Full-length recombinant rat receptor was expressed in E. coli BL21 (DE3) Codon Plus RIL cells and purified to homogeneity using two different column chromatography systems. The first system was a nickel affinity resin that utilizes the C-terminal histidine tag on this protein. […] Aliquots of the purified protein were quick frozen in liquid nitrogen and stored at −80° C. until use. For use in binding assays, the protein was diluted in TEDK50 (50 mM Tris, 1.5 mM EDTA, pH7.4, 5 mM DTT, 150 mM KCl) with 0.1% Chaps detergent. The receptor protein and ligand concentration was optimized such that no more than 20% of the added radiolabeled ligand was bound to the receptor.
Radiolabeled and unlabeled ligands were added to 100 mcl of the diluted protein at a final ethanol concentration of ≦10%, mixed and incubated overnight on ice to reach binding equilibrium. The following day, 100 mcl of hydroxylapatite slurry (50%) was added to each tube and mixed at 10-minute intervals for 30 minutes. The hydroxylapaptite was collected by centrifugation and then washed three times with Tris-EDTA buffer (50 mM Tris, 1.5 mM EDTA, pH 7.4) containing 0.5% Titron X-100. […] Total binding was determined from the tubes containing only radiolabeled ligand.

SMILES	HL-60 cell differentiation (in words) (HL-60 cells)	Viability of OVCAR3 ovarian cancer cells [1]	Viability of HL-60 leukemia cells (HL-60 leukemia cells)	Transcriptional activity in bone cells (in words) ([2]; until very high doses are administered)	Viability of ROS 17/2.8 bone cancer cells [3]	Viability of H-82 lung carcinoma cells [4]	Body weight throughout the test period [5]	Intestinal calcium transport activity (vitamin D-deficient rats [6]; 35,100 pmol/rat)	Bone calcium mobilization (serum calcium) (vitamin D-deficient rats [7]; 35,100 pmol/day for 4 consecutive days, ip)	Viability of DU-145 prostate cells [8]	VDR binding activity relative to natural hormone (times less active) [9]	EC50 (HL-60 cells; four days after treatment, read-out: EC50, HL-60 cell differentiation) [nM]	EC50 ([2]; ROS 17/2.8 cells, 16 h after dosing) [nM]	Intestinal calcium transport activity (vitamin D-deficient rats [6]; 260 pmol and 780 pmol doses)	Bone calcium mobilization (serum calcium) (vitamin D-deficient rats [7]; 4 consecutive ip doses)
C=C1CC[C@H](O)C/C1=C/C=C1\CCC[C@]2(C)[C@@H]([C@H](C)CCCOS(=O)(=O)c3ccc(C)cc3)CC[C@@H]12 [TS-17, (20R)-25,26,27-trinor-24-(p-methylphenylsulfonate)-vitamin D3]	does not promote HL60 differentiation	does not have any significant effect on the viability	kills HL-60 leukemia cells	lacks any transcriptional activity	does not have any significant effect on the viability	kills H-82 lung carcinoma cells	substantially maintain their body weight	little to no activity	little or no mobilization of bone calcium	does not have any significant effect on the viability	at least 100 times less active				
C=C1/C(=C\C=C2/CCC[C@]3(C)[C@@H]([C@H](C)CCCC(C)(C)O)CC[C@@H]23)C[C@@H](O)C[C@@H]1O [1,25(OH)2D3, 1α,25-dihydroxyvitamin D3, reference compound]			does not have any significant effect on the viability			requires a significantly higher dose						2	0.1	significant increase in activity	significant increases in serum calcium
